Assay results as given in ChEMBL document CHEMBL4007488, “Amphiphilic Indole Derivatives as Antimycobacterial Agents: Structure-Activity Relationships and Membrane Targeting Properties” (J Med Chem, 2017).
Converted amounts (≈) assume the structure as drawn.

Key:
[1] = test system: Mycobacterium tuberculosis variant bovis; assay: Antimycobacterial activity against Mycobacterium bovis BCG ATCC 35734 assessed as growth inhibition at 10 uM after 5 days relative to control; assay type: functional; settings: ATCC 35734, 120 h, read-out: GI
[2] = test system: Mycobacterium tuberculosis variant bovis; assay: Antimycobacterial activity against Mycobacterium bovis BCG ATCC 35734 after 5 days by broth dilution method; assay type: functional; settings: ATCC 35734, 120 h

SMILES | inhibition of growth at 10 µM [1] | MIC50 [2] | MIC90 [2]
CCCCCCCCn1ccc2c(F)cccc21 | 99% | > 50 µM | > 50 µM
CCCCCCCCn1cc(CN2CCC3(CC2)OCCO3)c2c(F)cccc21 | 99% | 3 µM (≈ 1.21 µg/mL) | 6 µM (≈ 2.42 µg/mL)
CC(C)=CCC/C(C)=C/Cn1cc(CN2CCC(C)CC2)c2cc(F)ccc21 | 99% | 4 µM (≈ 1.53 µg/mL) | 6 µM (≈ 2.3 µg/mL)
CCCCCCCCn1cc(CN2CCC3(CC2)OCCO3)c2ccc(F)cc21 | 99% | 3 µM (≈ 1.21 µg/mL) | 5 µM (≈ 2.01 µg/mL)
CCCCCCCCn1cc(CN2CCCCC2)c2ccccc21 | 99% | 14 µM (≈ 4.57 µg/mL) | 31 µM (≈ 10.1 µg/mL)
CCCCCCCCn1cc(CN2CCC3(CC2)OCCO3)c2cccc(OC)c21 | 99% | 28 µM (≈ 11.6 µg/mL) | 42 µM (≈ 17.4 µg/mL)
CC(C)=CCC/C(C)=C/Cn1cc(CN2CCCC2)c2cc(F)ccc21 | 99% | 13 µM (≈ 4.61 µg/mL) | 25 µM (≈ 8.86 µg/mL)
CC(C)=CCC/C(C)=C/Cn1cc(CN2CCCCC2)c2cccnc21 | 99% | > 50 µM | > 50 µM
CCCCCCCCn1cc(CNC23CC4CC(CC(C4)C2)C3)c2cc(F)ccc21 | 99% | 2.5 to 3 µM (≈ 1.03 to 1.23 µg/mL) | 5.5 to 6 µM (≈ 2.26 to 2.46 µg/mL)
Fc1ccc2[nH]cc(CN3CCCCC3)c2c1 | 99% | > 50 µM | > 50 µM
CCCCCCCCn1cc(CNC2CCCCCC2)c2cc(F)ccc21 | 99% | 3 µM (≈ 1.12 µg/mL) | 16 µM (≈ 5.96 µg/mL)
CCCCCCCCn1cc(CN2CCN(CC)CC2)c2cc(F)ccc21 | 99% | 13 µM (≈ 4.86 µg/mL) | 32 µM (≈ 12 µg/mL)
CCCCn1cc(CN2CCCCCC2)c2c(F)cccc21 | 99% | 10 µM (≈ 3.02 µg/mL) | 23 µM (≈ 6.96 µg/mL)
CCCCCCCCn1cc(CNC23CC4CC(CC(C4)C2)C3)c2cc(OC)ccc21 | 99% | 3 µM (≈ 1.27 µg/mL) | 5 µM (≈ 2.11 µg/mL)
CCCCCCCCn1cc(CN2CCCCCC2)c2ccc(OC)cc21 | 99% | 4 µM (≈ 1.48 µg/mL) | 6 µM (≈ 2.22 µg/mL)
CC(C)=CCC/C(C)=C/Cn1cc(CN2CCOCC2)c2cc(F)ccc21 | 99% | 15.5 µM (≈ 5.74 µg/mL) | > 50 µM
CC(C)=CCC/C(C)=C/Cn1cc(CN2CCCCC2)c2cc(Cl)ccc21 | 99% | 7 µM (≈ 2.69 µg/mL) | 10 µM (≈ 3.85 µg/mL)
CCCCCCCCn1cc(C(=O)N2CCCCCC2)c2cc(F)ccc21 | 99% | > 50 µM | > 50 µM
CCCCCCCCn1cc(CNC2CC2)c2cc(F)ccc21 | 99% | 11 µM (≈ 3.48 µg/mL) | 27 µM (≈ 8.54 µg/mL)
CCCN(CCC)Cc1cn(C/C=C(\C)CCC=C(C)C)c2ccc(F)cc12 | 99% | 18 µM (≈ 6.92 µg/mL) | 39 µM (≈ 15 µg/mL)
CCCCCCCCn1cc(CN2CCCCC2)c2cc(Cl)ccc21 | 99% | 5 µM (≈ 1.8 µg/mL) | 9 µM (≈ 3.25 µg/mL)
CCCCCCCCn1cc(CN2CCC(C)CC2)c2cc(OC)ccc21 | 99% | 4 µM (≈ 1.48 µg/mL) | 6 µM (≈ 2.22 µg/mL)
CC(C)=CCC/C(C)=C/Cn1cc(CNC2CCCC2)c2cc(F)ccc21 | 99% | 8 µM (≈ 2.95 µg/mL) | 14 µM (≈ 5.16 µg/mL)
CC(C)=CCC/C(C)=C/Cn1cc(CN2CCC3(CC2)OCCO3)c2cc(F)ccc21 | 99% | 5 µM (≈ 2.13 µg/mL) | 9 µM (≈ 3.84 µg/mL)
CCCCCCCCn1cc(CN2CCCCC2)c2cc(Br)ccc21 | 99% | 5 µM (≈ 2.03 µg/mL) | 9 µM (≈ 3.65 µg/mL)
CCCCCCCCn1ccc2cc(F)ccc21 | 99% | > 50 µM | > 50 µM

SMILES | inhibition of growth at 10 µM [1] | MIC50 [2] | MIC90 [2]
CC(C)=CCC/C(C)=C/Cn1cc(CN2CCN(C)CC2)c2cc(F)ccc21 | 99% | 15 µM (≈ 5.75 µg/mL) | 23 µM (≈ 8.82 µg/mL)
CCCCCCCCn1cc(CNC23CC4CC(CC(C4)C2)C3)c2ccc(F)cc21 | 99% | 3 µM (≈ 1.23 µg/mL) | 5 µM (≈ 2.05 µg/mL)
CCCCCCCCn1cc(CNC23CC4CC(CC(C4)C2)C3)c2cccc(F)c21 | 99% | 3 µM (≈ 1.23 µg/mL) | 5 µM (≈ 2.05 µg/mL)
CCCCCCCCn1cc(CN2CCC(C)CC2)c2cccc(F)c21 | 99% | 4 µM (≈ 1.43 µg/mL) | 6 µM (≈ 2.15 µg/mL)
CCCCCCCCn1cc(CN2CCCC2)c2cc(F)ccc21 | 99% | 10 µM (≈ 3.3 µg/mL) | 24 µM (≈ 7.93 µg/mL)
O=C(Cn1cc(CN2CCCCC2)c2cc(F)ccc21)NC1CC1 | 99% | > 50 µM | > 50 µM
CCCCCCCCn1cc(CN2CCC(C)CC2)c2c(F)cccc21 | 99% | 2 µM (≈ 0.717 µg/mL) | 5 µM (≈ 1.79 µg/mL)
CCCCCCCCn1cc(CN2CCCCC2)c2c(OC)cccc21 | 99% | 16 µM (≈ 5.7 µg/mL) | 35 µM (≈ 12.5 µg/mL)
CCCCCCCCn1cc(CNC2CCCC2)c2cc(F)ccc21 | 99% | 6 µM (≈ 2.07 µg/mL) | 21 µM (≈ 7.23 µg/mL)
CCCCCCCCn1cc(CNC23CC4CC(CC(C4)C2)C3)c2c(OC)cccc21 | 99% | 6 µM (≈ 2.54 µg/mL) | 12 µM (≈ 5.07 µg/mL)
Fc1ccc2c(c1)c(CN1CCCCC1)cn2Cc1ccccc1 | 99% | 35 µM (≈ 11.3 µg/mL) | > 50 µM
CCCCn1cc(CN2CCCCC2)c2cc(F)ccc21 | 99% | > 50 µM | 100 µM (≈ 28.8 µg/mL)
CC(C)=CCC/C(C)=C/Cn1cc(CN2CCCCC2)c2ccccc21 | 99% | 3 µM (≈ 1.05 µg/mL) | 6 µM (≈ 2.1 µg/mL)
CCCCCCCCn1cc(CN2CCCCCC2)c2cc(OC)ccc21 | 99% | 4 µM (≈ 1.48 µg/mL) | 5 µM (≈ 1.85 µg/mL)
CCCCCCCCn1cc(CN2CCC3(CC2)OCCO3)c2cc(OC)ccc21 | 99% | 5 µM (≈ 2.07 µg/mL) | 9 µM (≈ 3.73 µg/mL)
CCCCCCn1cc(CN2CCCCCC2)c2c(F)cccc21 | 99% | 8 µM (≈ 2.64 µg/mL) | 13 µM (≈ 4.3 µg/mL)
CCCCCCCCn1cc(CN2CCCCC2)c2c(F)cccc21 | 99% | 6 µM (≈ 2.07 µg/mL) | 11 µM (≈ 3.79 µg/mL)
CCCCCCCCn1cc(CN2CCC(C)CC2)c2ccc(OC)cc21 | 99% | 3 µM (≈ 1.11 µg/mL) | 5 µM (≈ 1.85 µg/mL)
CCCCCCCCn1cc(CN2CCOCC2)c2cc(F)ccc21 | 99% | 16 µM (≈ 5.54 µg/mL) | > 50 µM
CCCCCCCCn1cc(CN2CCC3(CC2)OCCO3)c2cccc(F)c21 | 99% | 3 µM (≈ 1.21 µg/mL) | 7 µM (≈ 2.82 µg/mL)
CCCCCCCCn1cc(CN2CCCCCC2)c2ccc(F)cc21 | 99% | 4 µM (≈ 1.43 µg/mL) | 6 µM (≈ 2.15 µg/mL)
CC(C)=CCC/C(C)=C/Cn1cc(CN(C)C)c2cc(F)ccc21 | 99% | 14.5 µM (≈ 4.76 µg/mL) | 25 µM (≈ 8.21 µg/mL)
CCCCCCCCn1cc(CN2CCN(C)CC2)c2cc(F)ccc21 | 99% | 13 µM (≈ 4.67 µg/mL) | 36 µM (≈ 12.9 µg/mL)
CCCCCCCCn1cc(CN2CCC(C)CC2)c2c(OC)cccc21 | 99% | 10 µM (≈ 3.71 µg/mL) | 18 µM (≈ 6.67 µg/mL)
Fc1cccc2[nH]cc(CN3CCCCCC3)c12 | 99% | > 50 µM | > 50 µM
